In patent US11039618B2, “Metam salts and polysulfide soil treatment” (Tessenderlo Kerley, Inc, priority 2016, dated 2021):

Tested on: Pythium
Experiment: Example 6: Pythium population in treated farm soil samples
Type: cell-based
Details: soil from another location; average over rates: LSS 45 and 90 gal/acre; metam sodium 20 and 40 gal/acre; combination 20 and 40 gal metam with 45 gal LSS; untreated 150
Procedure: Soil from a farm located in Washington state was treated with various solutions, and subsequently the population of Verticillium in treated samples were determined. Untreated samples contained 31 CFU per gram of dry soil. Soil treated with 90 gallons per acre liquid lime sulfur (276 pounds/acre or 309 kg/ha of calcium polysulfide) had less than 2 CFU per gram of dry soil. […] Samples treated with 170 pounds of metam sodium per acre and with a mixture of 138 pounds calcium polysulfide and 170 pounds of metam sodium per acre had about 70 to 80 CFU per gram of dry soil. […] The reason is not understood, and may reflect test protocols.
Clearly the test protocol and/or sample variability were over-riding factors. In tests on soil from another location, untreated soil had 150 CFU Pythium per gram of dry soil.

## CNC(=S)S [Metam, sodium methyldithiocarbamate]
  average CFU Pythium per gram of dry soil: 60 CFU per gram of dry soil
